# How the values were obtained:
# [1] = Solubility of lamotrigine; type: physicochemical; conditions: all media; slightly pH-dependent, highest in 0.1N HCl
# [2] = 25° C., cited from earlier work
# [3] = concomitant valproate (reduces hepatic clearance of lamotrigine), for a given dose; cited from earlier work
compound,measurement,setting,value
"Nc1nnc(-c2cccc(Cl)c2Cl)c(N)n1 [Lamotrigine, 3,5-diamino-6-(2,3-dichlorophenyl)-as-triazine]",solubility of lamotrigine,[1],moderately high in all media
same,solubility in 0.1 M HCl,[2]; 0.1 M HCl,4100 µg/mL
same,solubility in water,[2]; water,170 µg/mL
same,increase of plasma concentrations of the drug,[3],approximately two-fold
